These results are taken from patent US8227207B2, “Bioactive peptides derived from the proteins of egg white by means of enzymatic hydrolysis” (Consejo Superior de Investigaciones Cientifcas, priority 2004, dated 2012).

“Also recorded” adds a separate entry of the source. Residues, ends and D or L forms follow the SMILES beside them.

Experiment [1] concerns the target T1, angiotensin converting enzyme (ACE, EC 3.4.15.1) (Oryctolagus cuniculus, UniProt P12822).
T1 sequence (P12822 34-1310): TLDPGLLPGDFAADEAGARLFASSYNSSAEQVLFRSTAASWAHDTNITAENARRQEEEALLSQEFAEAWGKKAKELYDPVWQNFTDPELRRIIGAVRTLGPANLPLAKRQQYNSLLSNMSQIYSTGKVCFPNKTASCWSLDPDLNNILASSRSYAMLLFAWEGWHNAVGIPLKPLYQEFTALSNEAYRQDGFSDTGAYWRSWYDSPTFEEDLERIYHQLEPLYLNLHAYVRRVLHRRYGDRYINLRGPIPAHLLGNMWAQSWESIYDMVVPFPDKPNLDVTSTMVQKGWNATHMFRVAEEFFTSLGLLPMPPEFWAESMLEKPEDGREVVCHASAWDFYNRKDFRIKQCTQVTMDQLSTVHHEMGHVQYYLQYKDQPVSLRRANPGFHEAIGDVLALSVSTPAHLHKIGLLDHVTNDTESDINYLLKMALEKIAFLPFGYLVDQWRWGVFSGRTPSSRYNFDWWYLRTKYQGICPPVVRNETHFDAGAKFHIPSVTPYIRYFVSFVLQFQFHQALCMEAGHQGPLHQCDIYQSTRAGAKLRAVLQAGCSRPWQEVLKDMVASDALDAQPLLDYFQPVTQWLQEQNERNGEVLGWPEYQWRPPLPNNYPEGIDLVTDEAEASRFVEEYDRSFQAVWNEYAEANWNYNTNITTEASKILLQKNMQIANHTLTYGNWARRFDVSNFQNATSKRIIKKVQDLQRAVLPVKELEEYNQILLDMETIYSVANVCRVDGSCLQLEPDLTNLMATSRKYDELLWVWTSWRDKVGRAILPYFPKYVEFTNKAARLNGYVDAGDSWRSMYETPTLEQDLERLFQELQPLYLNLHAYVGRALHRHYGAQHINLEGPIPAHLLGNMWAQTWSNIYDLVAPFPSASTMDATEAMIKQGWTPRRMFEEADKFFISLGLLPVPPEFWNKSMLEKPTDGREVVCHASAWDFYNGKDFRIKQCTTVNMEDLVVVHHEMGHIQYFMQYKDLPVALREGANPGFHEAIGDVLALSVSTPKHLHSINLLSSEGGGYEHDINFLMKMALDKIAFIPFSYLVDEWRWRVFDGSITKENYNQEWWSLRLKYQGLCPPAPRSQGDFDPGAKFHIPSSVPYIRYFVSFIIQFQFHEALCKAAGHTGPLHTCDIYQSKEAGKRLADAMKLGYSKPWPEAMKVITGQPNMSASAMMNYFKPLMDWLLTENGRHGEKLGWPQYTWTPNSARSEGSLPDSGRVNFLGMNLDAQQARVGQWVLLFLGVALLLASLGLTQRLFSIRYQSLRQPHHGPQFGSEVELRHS
In kind it is biochemical. The conditions noted are these: for IC50: read-out: ACEI activity IC50, synthetic peptides; for ACEI activity in vitro (in words): peptides. How it is done:
The inhibitory activity of the angiotensin converting enzyme (ACE) is measured in vitro according to the method of D. W. Cushman and H. S. Cheung (Spectrophotometric assay and properties of the angiotensin-converting enzyme of rabbit lung. Biochemical Pharmacology, 1971, 20: 1637-1648), later on modified by Y. K. Kim, S. Yoon, D. Y. Yu, B. Lönnerdal and B. H. Cheung (Novel angiotensin-I-converting enzyme inhibitory peptides derived from recombinant human αs1-casein expressed in Escherichia coli, Journal of Dairy Research 1999, 66, 431-439).
The substrate hippuryl histidyl leucine (HHL, Sigma Chemicals Co., St. Louis, Mo., USA) is dissolved in a 0.1 M borate buffer with 0.3 M NaCl pH 8.3 to obtain a final concentration of 5 mM. To 100 μl of substrate are added 40 μl of each of the samples whose ACEI activity it is wished to determine. The ACE enzyme (EC 3.4.15.1, Sigma) is added, dissolved in 50% glycerol and diluted 1/10 in bidistilled water at the moment of conducting the assay. The reaction is carried out at 37° C. for 30 minutes in a water-bath. The enzyme is deactivated by lowering the pH with 150 μl of 1 N HCl. The hippuric acid formed is extracted with 1000 μl of ethyl acetate. Following vortex stirring for 20 seconds, it is centrifuged at 4000 rpm for 10 minutes at room temperature. 750 μl of the organic phase are taken and evaporated by heating at 95° C. for 10 minutes. The hippuric acid residue is redissolved in 800 μl of bidistilled water and, following stirring for 20 seconds, the absorbency at 228 nm is measured in a Dur-70 spectrophotometer from Beckman Instruments, Inc., Fullerton, USA.
In order to calculate the percentage of ACEI activity, the following formula is used
The blank is used for correcting the background absorbency. This contains substrate, enzyme and 20 μl of bidistilled water in place of the sample, and the reaction is halted at zero time. The control implies a hundred percent of the enzymatic action on the substrate in the absence of inhibitors and contains 20 μl of water in place of the sample and is incubated the same time as the sample.
The results are presented as the IC50 (μM or μg/ml) or concentration at which 50% of the enzyme's activity is inhibited. The concentration of protein is determined by means of the bicinchonomic acid (BCA) assay (Pierce, Rockford, Ill., USA) using bovine seroalbumin as reference.

The subject of experiment [2] is spontaneously hypertensive rats (SHR). In words: Antihypertensive activity: systolic arterial pressure (tail cuff) in spontaneously hypertensive rats. In kind it is in vivo, rat. The conditions noted are these: for time of maximum drop in SAP after administration: intragastric probe; for drop in systolic arterial pressure (SAP) / anti-hypertensive activity (in words): single administration by intragastric probe. How it is done:
(§1) The effect is studied of various identified peptides and of some products containing them (for example egg white hydrolysed with pepsin for 3 hours and the fraction of it less than 3000 Da) on the arterial pressure of spontaneously hypertensive rats (SHR) and Wistar-Kyoto rats (WKY) which are the normotense controls for the SHR.
(§2) This study is conducted with SHR (10) and WKY of 17-24 weeks old and weight between 300 and 350 g, coming from Charles River Laboratories España, S. A. The rats are kept in cages of five by five and maintained at a stable temperature of 25° C. with light-dark cycles of 12 hours, ingesting freely available water and food. In order to carry out the measurement of systolic arterial pressure (SAP) “tail cuff” equipment is used (Le5001, Letica) which automatically provides a digital value of the SAP and records and facilitates the cardiac frequency of the animals. Various measurements are made and the average of all of them is obtained in order to achieve a reliable value of the SAP. Before positioning the cuff and transducer in the tail of the rats, the rats are exposed to a temperature of close to 30° C. in order to facilitate dilation of the caudal artery. Also, in order to ensure the reliability of the measurement, the animals are made to get used to the procedure for two weeks prior to conducting each assay in question.
(§3) The administration of the products to be assayed is done by means of an intragastric probe in a time margin of between 9 and 10 o'clock in the morning. The SHR used for the study had SAP values of between 230 and 280 mm Hg. The WKY used for the study at that moment had SAP values of between 160 and 200 mm Hg. Measurements of the SAP were taken from the animals periodically, every 2 hours, up to 8 hours post-administration of the products to be assayed; in addition, a SAP measurement was taken 24 hours after the administration of those products. As negative control (in order to establish the circadian variation of the SAP in probed rats) the measurements of the SAP obtained in rats which had been administered 1 ml of water by means of intragastric probe were used. As positive control, the measurements of the SAP obtained in rats which had been administered 50 mg/kg of Captopril (prototype ACEI drug) by means of intragastric probe were used. This dose of Captopril was administered to each rat in a volume of 1 ml. In order to establish the effect of the unhydrolysed egg white on the arterial pressure of the animals, similar assays to those described above were conducted, in which the animals were treated by the same procedure with 200 mg/kg of previously freeze-dried egg white (reference).
The results obtained are grouped and the mean±the standard error of measurement (SEM) is obtained for a minimum of 9 homogenous assays. The data of the treated animals are always compared with the data deemed to be a negative control. In order to compare them and obtain the statistical significance, Student's t-test for unpaired data is used and the difference for values of p<0.05 is considered significant.

For the next experiment, the system named is Wistar-Kyoto rats (WKY). In words: Systolic arterial pressure (tail cuff) in normotense Wistar-Kyoto rats. Format: in vivo, rat. The conditions noted are these: highest dose used, intragastric probe. How it is done: as §1, §2, §3
The results obtained are grouped and the mean±the standard error of measurement (SEM) is obtained for a minimum of 9 homogenous assays. […]

For `CC[C@H](C)[C@H](NC(=O)[C@H](CCC(N)=O)NC(=O)[C@@H](N)Cc1ccc(O)cc1)C(=O)NCC(=O)N[C@@H](CC(C)C)C(=O)O` [SEQ. ID. N^o 1, YQIGL] (H-YQIGL-OH; N-terminus and C-terminus assumed), the IC50 in experiment [1] worked out at 174 µM.

With `CC[C@H](C)[C@H](N)C(=O)N[C@H](C(=O)N[C@@H](Cc1ccccc1)C(=O)O)C(C)C` [SEQ. ID. N^o 2, IVF], in experiment [2], the “time of maximum drop in SAP after administration” value turned out to be 6 h; the “drop in systolic arterial pressure (SAP) / anti-hypertensive activity (in words)” value was “possess anti-hypertensive activity; also recorded: significant dose-dependent drop in the SAP; also recorded: clear and pronounced anti-hypertensive effect; also recorded: display anti-hypertensive activity”. Besides, the “ACEI activity in vitro (in words)” value in experiment [1] is listed as “potent ACEI activity”. The “change in SAP in normotense rats (in words)” value in the experiment on Wistar-Kyoto rats (WKY) is on record as “not in normotensed Wistar-Kyoto rats; also recorded: none of these compounds modifies the SAP”.

`CC(C)C[C@H](NC(=O)[C@H](Cc1ccccc1)NC(=O)[C@@H]1CCCN1C(=O)[C@H](Cc1c[nH]cn1)NC(=O)[C@H](CC(=O)O)NC(=O)[C@H](C)NC(=O)[C@@H](N)CCCNC(=N)N)C(=O)O` [SEQ. ID. N^o 3, RADHPFL] (H-RADHPFL-OH; N-terminus and C-terminus assumed): in experiment [2], the “time of maximum drop in SAP after administration” value is 6 h; the “drop in systolic arterial pressure (SAP) / anti-hypertensive activity (in words)” value is “possess anti-hypertensive activity; also recorded: significant dose-dependent drop in the SAP; also recorded: clear and pronounced anti-hypertensive effect; also recorded: display anti-hypertensive activity”. Also, in experiment [1], the “ACEI activity in vitro (in words)” value is given as “potent ACEI activity” and the IC50 worked out at 6.2 µM. The “change in SAP in normotense rats (in words)” value in the experiment with Wistar-Kyoto rats (WKY) is “not in normotensed Wistar-Kyoto rats; also recorded: none of these compounds modifies the SAP”.

Take `CC[C@H](C)[C@H](NC(=O)[C@H](CC(=O)O)NC(=O)[C@@H](N)CCCNC(=N)N)C(=O)N[C@@H](CC(C)C)C(=O)N[C@@H](CC(N)=O)C(=O)N[C@@H](CCC(N)=O)C(=O)O` [SEQ. ID. N^o 7, RDILNQ] (H-RDILNQ-OH): the IC50 in experiment [1] worked out at 436 µM. On to `CSCC[C@H](NC(=O)[C@H](C)NC(=O)[C@H](CC(C)C)NC(=O)[C@H](C)NC(=O)[C@@H](N)CO)C(=O)O` [SEQ. ID. N^o 8, SALAM] (H-SALAM-OH), for which the IC50 in experiment [1] was determined as 229 µM. On the same count and under the same terms, for `CC[C@H](C)[C@H](NC(=O)[C@H](CO)NC(=O)[C@@H](N)CCC(=O)O)C(=O)N[C@H](C(=O)N[C@@H](CC(N)=O)C(=O)N[C@@H](Cc1ccccc1)C(=O)O)[C@@H](C)CC` [SEQ. ID. N^o 12, ESIINF] (H-ESIINF-OH) the value was above 1000 µM; for `CC(C)C[C@H](NC(=O)CNC(=O)[C@H](CO)NC(=O)[C@@H](NC(=O)[C@H](CCC(=O)O)NC(=O)[C@H](CC(=O)O)NC(=O)[C@@H]1CCCN1C(=O)[C@H](CC(C)C)NC(=O)[C@H](CC(C)C)NC(=O)[C@@H](N)C(C)C)C(C)C)C(=O)O` [SEQ. ID. N^o 13] (H-VLLPDEVSGL-OH), above 1000 µM; for `CC[C@H](C)[C@H](NC(=O)[C@H](CC(C)C)NC(=O)[C@@H](N)CCC(=O)O)C(=O)N[C@@H](CC(N)=O)C(=O)O` [SEQ. ID. N^o 14, ELIN] (H-ELIN-OH), above 1000 µM. The same measure, in the same setting: for `CC[C@H](C)[C@H](NC(=O)[C@@H]1CCCN1C(=O)[C@H](CCC(=O)O)NC(=O)[C@H](CC(C)C)NC(=O)CNC(=O)CNC(=O)[C@H](CCCNC(=N)N)NC(=O)[C@@H](N)Cc1ccc(O)cc1)C(=O)N[C@@H](CC(N)=O)C(=O)N[C@@H](Cc1ccccc1)C(=O)O` [SEQ. ID. N^o 15] (H-YRGGLEPINF-OH) the value was above 1000 µM.

B1: unhydrolysed ovalbumin: ovalbumin grade VI (99% purity) (Sigma), unhydrolysed (protein)
chain: GSIGAASMEFCFDVFKELKVHHANENIFYCPIAIMSALAMVYLGAKDSTRTQINKVVRFDKLPGFGDSIEAQCGTSVNVHSSLRDILNQITKPNDVYSFSLASRLYAEERYPILPEYLQCVKELYRGGLEPINFQTAADQARELINSWVESQTNGIIRNVLQPSSVDSQTAMVLVNAIVFKGLWEKAFKDEDTQAMPFRVTEQESKPVQMMYQIGLFRVASMASEKMKILELPFASGTMSMLVLLPDEVSGLEQLESIINFEKLTEWTSSNVMEERKIKVYLPRMKMEEKYNLTSVLMAMGITDVFSSSANLSGISSAESLKISQAVHAAHAEINEAGREVVGSAEAGVDAASVSEEFRADHPFLFCIKHIATNAVLFFGRCVSP
For the molecule B1, the “ACEI activity IC50” value in experiment [1] (protein concentration, product as such) is above 750 mg/L.

As a reminder, the IC50 is the concentration needed to halve the response being measured.
